{"source": "patent US8222453B2", "about": "“Benzamide factor VIIa inhibitors useful as anticoagulants” (Bristol-Myers Squibb Company, priority 2006, dated 2012)", "origin": "cited, not measured here", "key": {"[1]": {"system": "systemic thrombin generation", "details": "patients undergoing coronary angioplasty"}, "deep vein thrombosis": {"system": "deep vein thrombosis", "details": "patients undergoing total knee replacement"}}, "data": [{"substance": "recombinant nematode anticoagulant protein c2 [rNAPc2]", "values": [{"measurement": "systemic thrombin generation", "setting": "[1]", "result": "reduces systemic thrombin generation"}, {"measurement": "deep vein thrombosis", "setting": "deep vein thrombosis", "result": "prevents deep vein thrombosis"}]}]}
